Each structure is given as a SMILES string.

Holding throughout (format): functional
In assay [1] the test system is Staphylococcus aureus. Description: Antibacterial activity against Staphylococcus aureus ATCC 25923 assessed as growth inhibition at 1000 ug/mL after 24 hrs by agar well plate method. As to conditions: ATCC 25923, 24 h, read-out: DIZ.
Assay [2] has as its system Candida albicans. As to the kind of experiment: Antifungal activity against Candida albicans MTCC 3017 assessed as growth inhibition at 500 ug/mL after 72 hrs by agar well plate method. To be noted: MTCC 3017, 72 h, read-out: DIZ.
Assay [3] has as its system Candida albicans. Description: Antifungal activity against Candida albicans MTCC 3017 assessed as growth inhibition at 1000 ug/mL after 72 hrs by agar well plate method. To be noted: MTCC 3017, 72 h, read-out: DIZ.
Assay [4] deals with Staphylococcus aureus. As to the kind of experiment: Antibacterial activity against Staphylococcus aureus ATCC 25923 assessed as growth inhibition at 500 ug/mL after 24 hrs by agar well plate method. To be noted: ATCC 25923, 24 h, read-out: DIZ.
The test system of assay [5] is Aspergillus flavus. Description: Antifungal activity against Aspergillus flavus MTCC 3306 assessed as growth inhibition at 1000 ug/mL after 72 hrs by agar well plate method. To be noted: MTCC 3306, 72 h, read-out: DIZ.
Assay [6] concerns Radical scavenging activity. Description: Antioxidant activity assessed as DPPH free radical scavenging activity after 20 mins by UV-visible spectrophotometric analysis. On the technique in general: DPPH is a stable violet radical that fades when it is reduced.
Assay [7] is described as follows: Antifungal activity against Chrysosporium keratinophilum MTCC 2827 assessed as growth inhibition at 1000 ug/mL after 72 hrs by agar well plate method.
The nature of assay [8]: Antifungal activity against Chrysosporium keratinophilum MTCC 2827 assessed as growth inhibition at 500 ug/mL after 72 hrs by agar well plate method.
A short description of assay [9]: Antioxidant activity assessed as cupric ion reducing activity at 10 uM after 30 mins by CUPRAC assay.
Assay [10] is described as follows: Antioxidant activity assessed as ABTS free radical scavenging activity after 30 mins.
The test system of assay [11] is Aspergillus flavus. Description: Antifungal activity against Aspergillus flavus MTCC 3306 assessed as growth inhibition at 500 ug/mL after 72 hrs by agar well plate method. As to conditions: MTCC 3306, 72 h, read-out: DIZ.
Assay [12] deals with Pseudomonas aeruginosa. As to the kind of experiment: Antibacterial activity against Pseudomonas aeruginosa ATCC 27853 assessed as growth inhibition at 1000 ug/mL after 24 hrs by agar well plate method. As to conditions: ATCC 27853, 24 h, read-out: DIZ.
Assay [13] relates to Pseudomonas aeruginosa. Description: Antibacterial activity against Pseudomonas aeruginosa ATCC 27853 assessed as growth inhibition at 500 ug/mL after 24 hrs by agar well plate method. To be noted: ATCC 27853, 24 h, read-out: DIZ.
For assay [14], the system named is Escherichia coli. Description: Antibacterial activity against Escherichia coli ATCC 25922 assessed as growth inhibition at 1000 ug/mL after 24 hrs by agar well plate method. As to conditions: ATCC 25922, 24 h, read-out: DIZ.
Assay [15] is described as follows: Antioxidant activity assessed as ferric ion reducing activity at 10 uM after 20 mins by FRAP assay.
The test system of assay [16] is Escherichia coli. As to the kind of experiment: Antibacterial activity against Escherichia coli ATCC 25922 assessed as growth inhibition at 500 ug/mL after 24 hrs by agar well plate method. To be noted: ATCC 25922, 24 h, read-out: DIZ.

As for `COc1ccc(C2CC(=NOC(=O)c3ccccc3O)CC(c3ccc(OC)cc3)N2C)cc1` (stereo not given), the zone of inhibition at 1000 µg/mL in the assay on Staphylococcus aureus [1] is 4 mm; with Candida albicans [3], 6 mm; in the assay with Aspergillus flavus [5], 3 mm; in the assay with Pseudomonas aeruginosa [12], 4 mm; in the assay on Escherichia coli [14], 5 mm. The zone of inhibition at 500 µg/mL was 2 mm with Candida albicans [2]; 4 mm in the assay with Staphylococcus aureus [4]; 2 mm in the assay on Aspergillus flavus [11]; 3 mm in the assay on Pseudomonas aeruginosa [13]; 3 mm in the assay with Escherichia coli [16]. The IC50 (in general, the concentration that inhibits the measured activity by half) in [6] was determined as 19 µM; in [10] it was 29 µM. Further, the inhibition zone (IZ) is 5 mm in [7] and 3 mm in assay [8]. The Activity in assay [9] turned out to be 0.272; in assay [15] it was 0.33.
`COc1ccc(C(=O)ON=C2CC(c3ccc(OC)cc3)N(C)C(c3ccc(OC)cc3)C2)cc1` (stereo not given): the zone of inhibition at 1000 µg/mL with Staphylococcus aureus [1] was 3 mm; in the assay on Candida albicans [3] it was 7 mm; in the assay on Aspergillus flavus [5], 5 mm; in the assay on Pseudomonas aeruginosa [12] it was 4 mm; in the assay with Escherichia coli [14], 2 mm. The zone of inhibition at 500 µg/mL is 5 mm in the assay on Candida albicans [2]; 1 mm with Staphylococcus aureus [4]; 4 mm with Aspergillus flavus [11]; 3 mm with Pseudomonas aeruginosa [13]; 1 mm in the assay on Escherichia coli [16]. The IC50 came to 32 µM in assay [6] and 68 µM in assay [10]. Besides, the inhibition zone (IZ) in [7] and in [8] was 3 mm throughout. In addition, the figures for the Activity in assay [9] and in assay [15] were 0.245 and 0.31, respectively.
Turning to `COc1ccc(C2CC(=NOC(=O)c3ccccc3OC(C)=O)CC(c3ccc(OC)cc3)N2C)cc1` (stereo not given), the zone of inhibition at 1000 µg/mL was determined as 5 mm in the assay on Staphylococcus aureus [1]; 4 mm in the assay on Candida albicans [3]; 2 mm with Aspergillus flavus [5]; 5 mm in the assay on Pseudomonas aeruginosa [12]; 4 mm in the assay with Escherichia coli [14]. Further, the zone of inhibition at 500 µg/mL stood at 5 mm in the assay on Candida albicans [2]; 2 mm in the assay with Staphylococcus aureus [4]; 1 mm in the assay on Aspergillus flavus [11]; 4 mm in the assay on Pseudomonas aeruginosa [13]; 2 mm in the assay with Escherichia coli [16]. Also, the figures for the IC50 in [6] and in assay [10] were 132 µM and 350 µM, respectively. Moreover, the results for the inhibition zone (IZ) in assay [7] and in assay [8] were 3 mm and 2 mm, respectively. Moreover, the Activity in assay [9] amounted to 0.131; in assay [15], 0.179.
Turning to `COc1ccc(C2CC(=NOC(=O)c3cccc(Cl)c3)CC(c3ccc(OC)cc3)N2C)cc1` (stereo not given), the zone of inhibition at 1000 µg/mL in the assay on Staphylococcus aureus [1] was found to be 9 mm; with Candida albicans [3], 10 mm; with Aspergillus flavus [5], 7 mm; with Pseudomonas aeruginosa [12] it was 11 mm; with Escherichia coli [14], 12 mm. Besides, the zone of inhibition at 500 µg/mL in the assay with Candida albicans [2] is 7 mm; in the assay on Staphylococcus aureus [4], 7 mm; in the assay on Aspergillus flavus [11], 6 mm; in the assay with Pseudomonas aeruginosa [13], 8 mm; in the assay on Escherichia coli [16] it was 7 mm. Also, the values for the IC50 in assay [6] and in assay [10] were 186 µM and 136 µM, respectively. The inhibition zone (IZ) in assay [7] amounted to 7 mm; in assay [8] it was 5 mm. Besides, the Activity in assay [9] came to 0.179; in assay [15], 0.243.
`COc1ccc(C2CC(=NOC(=O)c3ccc(O)cc3)CC(c3ccc(OC)cc3)N2C)cc1` (stereo not given): the zone of inhibition at 1000 µg/mL with Staphylococcus aureus [1] is 5 mm; with Candida albicans [3], 2 mm; with Aspergillus flavus [5] it was 0 mm; in the assay on Pseudomonas aeruginosa [12], 3 mm; with Escherichia coli [14], 4 mm. Moreover, the zone of inhibition at 500 µg/mL came out at 2 mm with Candida albicans [2]; 3 mm in the assay with Staphylococcus aureus [4]; 1 mm in the assay on Aspergillus flavus [11]; 2 mm in the assay with Pseudomonas aeruginosa [13]; 3 mm in the assay with Escherichia coli [16]. The IC50 in assay [6] is 15 µM; in assay [10] it was 25 µM. In addition, the inhibition zone (IZ) in [7] turned out to be 2 mm; in [8], 1 mm. Moreover, the results for the Activity in assay [9] and in assay [15] were 0.293 and 0.333, respectively.
Take `COc1ccc(C2CC(=NOC(=O)c3ccc(Br)cc3)CC(c3ccc(OC)cc3)N2C)cc1` (stereo not given): the zone of inhibition at 1000 µg/mL stood at 8 mm in the assay with Staphylococcus aureus [1]; 9 mm in the assay with Candida albicans [3]; 5 mm in the assay on Aspergillus flavus [5]; 9 mm in the assay on Pseudomonas aeruginosa [12]; 10 mm in the assay on Escherichia coli [14]. For the same molecule, the zone of inhibition at 500 µg/mL was found to be 8 mm in the assay on Candida albicans [2]; 6 mm in the assay with Staphylococcus aureus [4]; 4 mm in the assay with Aspergillus flavus [11]; 7 mm in the assay on Pseudomonas aeruginosa [13]; 6 mm with Escherichia coli [16]. Also, the results for the IC50 in assay [6] and in assay [10] were 92 µM and 121 µM, respectively. Besides, the results for the inhibition zone (IZ) in [7] and in [8] were 6 mm and 4 mm, respectively. The Activity in assay [9] amounted to 0.215; in assay [15], 0.265.
For the molecule `COc1ccc(C2CC(=NOC(=O)c3cc(OC)c(OC)c(OC)c3)CC(c3ccc(OC)cc3)N2C)cc1` (stereo not given), the zone of inhibition at 1000 µg/mL with Staphylococcus aureus [1] came out at 5 mm; in the assay on Candida albicans [3] it was 3 mm; in the assay with Aspergillus flavus [5], 2 mm; in the assay on Pseudomonas aeruginosa [12], 5 mm; with Escherichia coli [14], 4 mm. Besides, the zone of inhibition at 500 µg/mL in the assay with Candida albicans [2], with Staphylococcus aureus [4], in the assay with Aspergillus flavus [11], with Pseudomonas aeruginosa [13] and with Escherichia coli [16] was 3 mm each time. Further, the results for the IC50 in assay [6] and in [10] were 71 µM and 93 µM, respectively. Also, the results for the inhibition zone (IZ) in assay [7] and in assay [8] were 5 mm and 2 mm, respectively. The Activity was found to be 0.232 in assay [9] and 0.286 in assay [15].
For `COc1ccc(C2CC(=NOC(=O)c3ccc(OC)cc3OC)CC(c3ccc(OC)cc3)N2C)cc1` (stereo not given), the zone of inhibition at 1000 µg/mL turned out to be 4 mm with Staphylococcus aureus [1]; 6 mm in the assay on Candida albicans [3]; 4 mm in the assay with Aspergillus flavus [5]; 6 mm with Pseudomonas aeruginosa [12]; 5 mm with Escherichia coli [14]. The zone of inhibition at 500 µg/mL with Candida albicans [2] was determined as 4 mm; in the assay on Staphylococcus aureus [4], 2 mm; in the assay on Aspergillus flavus [11], 3 mm; in the assay with Pseudomonas aeruginosa [13], 6 mm; in the assay on Escherichia coli [16], 3 mm. Besides, the IC50 in [6] was 56 µM; in assay [10] it was 80 µM. Moreover, the inhibition zone (IZ) in assay [7] turned out to be 4 mm; in assay [8], 3 mm. Also, the Activity in assay [9] was found to be 0.236; in assay [15], 0.296.
With `COc1ccc(C2CC(=NOC(=O)c3cc(O)c(O)c(O)c3)CC(c3ccc(OC)cc3)N2C)cc1` (stereo not given), the zone of inhibition at 1000 µg/mL came to 5 mm in the assay on Staphylococcus aureus [1]; 8 mm with Candida albicans [3]; 3 mm with Aspergillus flavus [5]; 4 mm in the assay with Pseudomonas aeruginosa [12]; 6 mm in the assay on Escherichia coli [14]. Further, the zone of inhibition at 500 µg/mL worked out at 6 mm in the assay with Candida albicans [2]; 3 mm with Staphylococcus aureus [4]; 1 mm in the assay with Aspergillus flavus [11]; 3 mm in the assay on Pseudomonas aeruginosa [13]; 4 mm in the assay with Escherichia coli [16]. Further, the values for the IC50 in assay [6] and in assay [10] were 11 µM and 18 µM, respectively. Further, the inhibition zone (IZ) in [7] was 3 mm; in [8] it was 2 mm. Besides, the Activity is 0.361 in assay [9] and 0.373 in assay [15].
In the case of `COc1ccc(C2CC(=NOC(=O)c3cccc(O)c3)CC(c3ccc(OC)cc3)N2C)cc1` (stereo not given), the zone of inhibition at 1000 µg/mL in the assay with Staphylococcus aureus [1] was determined as 6 mm; in the assay with Candida albicans [3], 3 mm; with Aspergillus flavus [5], 1 mm; in the assay with Pseudomonas aeruginosa [12] it was 5 mm; in the assay with Escherichia coli [14], 6 mm. The zone of inhibition at 500 µg/mL in the assay on Candida albicans [2] came out at 1 mm; with Staphylococcus aureus [4], 4 mm; in the assay on Aspergillus flavus [11], 0 mm; with Pseudomonas aeruginosa [13], 3 mm; in the assay with Escherichia coli [16], 5 mm. The IC50 in [6] worked out at 21 µM; in assay [10], 34 µM. Besides, the inhibition zone (IZ) worked out at 1 mm in assay [7] and 0 mm in assay [8]. Moreover, the Activity was 0.265 in assay [9] and 0.321 in assay [15].

These data come from ChEMBL document CHEMBL2429721, “Novel 2,6-bis(4-methoxyphenyl)-1-methylpiperidin-4-one oxime esters: synthesis and a new insight into their antioxidant and antimicrobial potential” (Med Chem Res, 2013).
